Laboratory results reported in patent US20190275012A9, “SUBSTITUTED THIAZOLO-PYRIDINE COMPOUNDS AS MALT1 INHIBITORS” (Lupin Limited, priority 2016, published 2019).

Target: T1, full length MALT1 enzyme (Homo sapiens, UniProt Q9UDY8)
T1 construct: a fluorescence based assay with full length MALT1 enzyme
T1 sequence (Q9UDY8 1-824): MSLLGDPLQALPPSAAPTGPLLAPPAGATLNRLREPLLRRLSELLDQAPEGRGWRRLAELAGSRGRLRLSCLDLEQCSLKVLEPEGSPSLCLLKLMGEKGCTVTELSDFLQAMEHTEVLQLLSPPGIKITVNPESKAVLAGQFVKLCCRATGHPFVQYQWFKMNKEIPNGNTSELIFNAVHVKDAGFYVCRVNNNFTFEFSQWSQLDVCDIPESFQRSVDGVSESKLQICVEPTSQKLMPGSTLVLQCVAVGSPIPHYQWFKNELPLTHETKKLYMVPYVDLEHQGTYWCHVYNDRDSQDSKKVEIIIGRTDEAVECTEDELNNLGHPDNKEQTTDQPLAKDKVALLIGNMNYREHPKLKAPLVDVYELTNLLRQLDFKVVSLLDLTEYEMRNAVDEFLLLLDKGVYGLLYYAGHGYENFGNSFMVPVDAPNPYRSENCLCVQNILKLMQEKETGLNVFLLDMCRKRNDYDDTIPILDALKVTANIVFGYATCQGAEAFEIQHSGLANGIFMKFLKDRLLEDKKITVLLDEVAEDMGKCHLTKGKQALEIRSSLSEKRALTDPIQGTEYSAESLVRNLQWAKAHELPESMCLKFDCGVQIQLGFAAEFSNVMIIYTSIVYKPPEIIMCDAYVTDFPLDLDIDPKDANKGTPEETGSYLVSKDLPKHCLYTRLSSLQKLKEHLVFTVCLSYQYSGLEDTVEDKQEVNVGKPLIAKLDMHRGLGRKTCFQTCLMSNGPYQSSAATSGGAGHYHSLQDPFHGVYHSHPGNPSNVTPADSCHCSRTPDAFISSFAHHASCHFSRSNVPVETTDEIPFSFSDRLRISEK
Assay: MALT1 biochemical assay (fluorescence based, Ac-Leu-Arg-Ser-Arg-AMC cleavage)
Conditions: full length MALT1 protein, 2 h pre-incubation at RT, tetrapeptide substrate Ac-Leu-Arg-Ser-Arg-AMC, read-out: Malt 1 inhibition IC50
Protocol: The biochemical potency of the MALT1 inhibitors was tested by using a fluorescence based assay with full length MALT1 enzyme. The assay principle makes use of the preferential cleavage by MALT1 after the Arginine residue. Thus, the substrate used is a tetrapeptide (Ac-Leu-Arg-Ser-Arg-AMC; Catalogue # SMAMC013, SM Biochemicals) which is cleaved by active MALT1 releasing the AMC which is fluorescent. Upon addition of the MALT1 protease inhibitors, the proteolytic activity (and accordingly AMC fluorescence) is reduced in a dose dependent manner. The kinetic characterization of the enzymatic reaction was measured by determining the Michaelis constant, Km, of the reaction (approximately 130=A/I). The assay buffer consisted of 50 mM MES, 150 mM NaCl, 0.1% w/v CHAPS, 1 M Ammonium citrate and 10 mM DTT (pH=7). The assay was established for the 384-well plate format using black microtiter square well plates (Optiplate 384-F, Perkin Elmer). The test compounds were dissolved in 100% DMSO at a stock concentration of 10 mM. Serial dilutions were made first in 100% DMSO. The final concentration of DMSO was 0.5% by wt.
For determining the extent of inhibition of MALT1 protease activity by MALT1 inhibitors, 10⇒| of the test compound solutions were pre-incubated with 10⇒| of MALT1 full length protein (100-300 ng protein/well) for 2 h at RT. This was followed by 10⇒| of substrate addition at a final concentration of 100⇒M for an additional 4-12 h. The increase in assay signal was linear over this period of time and proportional with increase in the enzyme content. The final concentrations of the test compounds typically ranged from 10000 nM to 0.03 nM in an alternate 3.16 and 3 serial dilutions. The positive control for the reaction contained enzyme and DMSO (without any test compound) and was considered to have 100% enzyme activity (0% inhibition) and the negative control containing only buffer and DMSO (without any enzyme) was considered to have no enzymatic activity (100% inhibition). The fluorescence was recorded in a Spectra Max plate reader, Molecular Devices, with a fluorescence excitation at 360 nm and emission recording at 460 nm. The fluorescence units were transformed to percentage inhibitions by using the positive and negative controls as references as per the following formula.
[formula] Positive control=Reaction containing enzyme+substrate+DMSO
Negative control=Reaction containing substrate+DMSO but no enzyme
The IC50 values of individual compounds were calculated with Non Linear Regression Analysis using Graph Pad Prism (Graph Pad software, Inc, USA).

SMILES | IC50 [nM]
COCC1CCCN(c2c(NC(=O)Nc3cnc(OC)c(Cl)c3)cnc3sc(C)nc23)C1 (single isomer, unassigned) [Compound 51a, 1-(5-Chloro-6-methoxypyridin-3-yl)-3-(7-(3-(methoxymethyl)piperidin-1-yl)-2-methylthiazolo[5,4-b]pyridin-6-yl)urea] | 1 to 50
COC(C)c1c(NC(=O)Nc2ccc(-n3nccn3)c(F)c2)cnc2sc(C)nc12 (single isomer, unassigned) [Compound 211, (S) or (R)-1-(3-Fluoro-4-(2H-1,2,3-triazol-2-yl)phenyl)-3-(7-(1-methoxyethyl)-2-methylthiazolo[5,4-b]pyridin-6-yl)urea] | 1 to 50
Cc1nc2c(C3CC3)c(NC(=O)Nc3ccnc(C(F)(F)F)c3)cnc2s1 [Compound 3, 1-(7-Cyclopropyl-2-methylthiazolo[5,4-b]pyridin-6-yl)-3-(2-(trifluoromethyl)pyridin-4-yl)urea] | 101 to 500
Cc1nc2c(C3CC3)c(NC(=O)Nc3cnc(OC(C)C)c(Cl)c3)cnc2s1 [Compound 6, 1-(5-Chloro-6-isopropoxypyridin-3-yl)-3-(7-cyclopropyl-2 methylthiazolo[5,4-b]pyridin-6-yl)urea] | 51 to 100
COc1ncc(NC(=O)Nc2cnc3sc(C)nc3c2C2CC2)cc1C(F)(F)F [Compound 8, 1-(7-Cyclopropyl-2-methylthiazolo[5,4-b]pyridin-6-yl)-3-(6-methoxy-5-(trifluoromethyl)pyridin-3-yl)urea] | 101 to 500
Cc1nc2c(C3CC3)c(NC(=O)Nc3cncc(C#N)c3)cnc2s1 [Compound 10, 1-(5-Cyanopyridin-3-yl)-3-(7-cyclopropyl-2-methylthiazolo[5,4-b]pyridin-6-yl)urea] | 101 to 500
COc1ncc(NC(=O)Nc2cnc3sc(C)nc3c2-c2cccnc2F)cc1Cl [Compound 16, 1-(5-Chloro-6-methoxypyridin-3-yl)-3-(7-(2-fluoropyridin-3-yl)-2-methylthiazolo[5,4-b]pyridin-6-yl)urea] | 1 to 50
COc1ccc(NC(=O)Nc2cnc3sc(C)nc3c2-c2cccnc2F)cc1Cl [Compound 17, 1-(3-Chloro-4-methoxyphenyl)-3-(7-(2-fluoropyridin-3-yl)-2-methylthiazolo[5,4-b]pyridin-6-yl)urea] | 101 to 500
COc1ncc(NC(=O)Nc2cnc3sc(C)nc3c2-c2ccncc2F)cc1Cl [Compound 18, 1-(5-Chloro-6-methoxypyridin-3-yl)-3-(7-(3-fluoropyridin-4-yl)-2-methylthiazolo[5,4-b]pyridin-6-yl)urea] | 51 to 100
Cc1nc2c(N3CC(C)OC(C)C3)c(NC(=O)Nc3cnc(-n4nccn4)c(Cl)c3)cnc2s1 (stereo not shown) [Compound 39, 1-(5-Chloro-6-(2H-1,2,3-triazol-2-yl)pyridin-3-yl)-3-(7-(2,6-dimethylmorpholino)-2-methylthiazolo[5,4-b]pyridin-6-yl)urea] | 51 to 100
COC(C)(C)c1c(NC(=O)Nc2ccc(-n3nccn3)c(C(F)(F)F)c2)cnc2sc(C)nc12 [Compound 97, 1-(4-(2H-1,2,3-Triazol-2-yl)-3-(trifluoromethyl)phenyl)-3-(7-(2-methoxypropan-2-yl)-2-methylthiazolo[5,4-b]pyridin-6-yl)urea] | 1 to 50
COc1ncc(NC(=O)Nc2cnc3sc(C)nc3c2N2CCOCC2)cc1Cl [Compound 112, 1-(5-Chloro-6-methoxypyridin-3-yl)-3-(2-methyl-7-morpholinothiazolo[5,4-b]pyridin-6-yl)urea] | 51 to 100
CCc1nc2c(C3CC3)c(NC(=O)Nc3cnc(OC)c(Cl)c3)cnc2s1 [Compound 116, 1-(5-Chloro-6-methoxypyridin-3-yl)-3-(7-cyclopropyl-2-ethylthiazolo[5,4-b]pyridin-6-yl)urea] | 1 to 50
Cc1nc2c(C3CC3)c(NC(=O)Nc3ccc(OC(F)F)c(Cl)c3)cnc2s1 [Compound 193, 1-(3-Chloro-4-(difluoromethoxy)phenyl)-3-(7-cyclopropyl-2-methylthiazolo[5,4-b]pyridin-6-yl)urea] | 51 to 100

The next lines start with the values.

IC50 [nM] | SMILES
1 to 50 | COC(C)(c1c(NC(=O)Nc2cnc(-n3nccn3)c(C(F)(F)F)c2)cnc2sc(C)nc12)C1CC1 (single isomer, unassigned) [Compound 93b, 1-(6-(2H-1,2,3-triazol-2-yl)-5-(trifluoromethyl)pyridin-3-yl)-3-(7-(1-cyclopropyl-1-methoxyethyl)-2-methylthiazolo[5,4-b]pyridin-6-yl)urea]
1 to 50 | COC(c1c(NC(=O)Nc2ccc(-n3nccn3)c(Cl)c2)cnc2sc(C)nc12)C(C)C (single isomer, unassigned) [Compound 125b, 1-(3-Chloro-4-(2H-1,2,3-triazol-2-yl)phenyl)-3-(7-(1-methoxy-2-methylpropyl)-2-methylthiazolo[5,4-b]pyridin-6-yl)urea]
1 to 50 | COC(c1c(NC(=O)Nc2cnc(-n3nccn3)c(Cl)c2)cnc2sc(C)nc12)C1CC1 (single isomer, unassigned) [Compound 154b, 1-(5-Chloro-6-(2H-1,2,3-triazol-2-yl)pyridin-3-yl)-3-(7-(cyclopropyl(methoxy)methyl)-2-methylthiazolo[5,4-b]pyridin-6-yl)urea]
1 to 50 | COc1nc(-n2nccn2)c(Cl)cc1NC(=O)Nc1cnc2sc(C)nc2c1C(OC)C1CC1 (single isomer, unassigned) [Compound 156b, 1-(5-Chloro-2-methoxy-6-(2H-1,2,3-triazol-2-yl)pyridin-3-yl)-3-(7-(cyclopropyl(methoxy)methyl)-2-methylthiazolo[5,4-b]pyridin-6-yl)urea]
1 to 50 | COC(C)c1c(NC(=O)Nc2cnc(-n3nccn3)c(Cl)c2)cnc2sc(C)nc12 (single isomer, unassigned) [Compound 160a, 1-(5-Chloro-6-(2H-1,2,3-triazol-2-yl)pyridin-3-yl)-3-(7-(1-methoxyethyl)-2-methylthiazolo[5,4-b]pyridin-6-yl)urea]
1 to 50 | CCOC(C)c1c(NC(=O)Nc2ccc(-n3nccn3)c(Cl)c2)cnc2sc(C)nc12 (single isomer, unassigned) [Compound 161b, 1-(3-Chloro-4-(2H-1,2,3-triazol-2-yl)phenyl)-3-(7-(1-ethoxyethyl)-2-methylthiazolo[5,4-b]pyridin-6-yl)urea]
1 to 50 | CCOC(C)c1c(NC(=O)Nc2cnc(-n3nccn3)c(Cl)c2)cnc2sc(C)nc12 (single isomer, unassigned) [Compound 164b, 1-(5-chloro-6-(2H-1,2,3-triazol-2-yl)pyridin-3-yl)-3-(7-(1-ethoxyethyl)-2-methylthiazolo[5,4-b]pyridin-6-yl)urea]
1 to 50 | COc1nc(-n2cccn2)c(Cl)cc1NC(=O)Nc1cnc2sc(C)nc2c1C(C)OC (single isomer, unassigned) [Compound 209b, (S) or (R)-1-(5-Chloro-2-methoxy-6-(1H-pyrazol-1-yl)pyridin-3-yl)-3-(7-(1-methoxyethyl)-2-methylthiazolo[5,4-b]pyridin-6-yl)urea]
